Test results published in US10344019B2 (priority 2010, dated 2019).
Where two headings read alike, the source gives them in different places.

Assays:
Test in all cases: microbe, parasite or virus in culture
Format in all cases: cell-based
[1] = system: HCV 1a RLuc cells (dicistronic genotype 1a H77 replicon, RLuc reporter); details: Hepatitis C virus, read-out: 1a
How it was run: (§1)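 Renilla luciferase HCV replicon cells: dicistronic 1b Con1, 1a H77 or 2a JFH-1 replicons, or a JFH-1 chimera carrying J6 NS5A (M31 present). Compound in DMSO serial dilutions, 72 h incubation, then lysis and luciferase read. EC50 by non-linear regression.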

[2] = system: HCV 1b RLuc cells (dicistronic genotype 1b Con1 replicon, RLuc reporter); details: Hepatitis C virus, read-out: 1b (nM)
How it was run: as §1

[3] = system: HCV 2a JFH-1 Rluc cells (dicistronic genotype 2a JFH-1 replicon, RLuc reporter); details: Hepatitis C virus, genotype 2a JFH-1 replicon, read-out: 2a JFH
How it was run: as §1

[4] = system: HCV 3a RLuc cells (NS5A chimeric genotype 1b Con1 replicon with consensus genotype 3a NS5A gene); details: Hepatitis C virus
How it was run: (§2)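 Replicon cells stably carrying the listed RLuc-encoding dicistronic replicons were seeded and treated with DMSO serial dilutions of compound (10 mM stocks) diluted into culture medium. After 72 h, cells were lysed and Renilla luciferase activity measured. EC50 was derived by non-linear regression.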

[5] = system: HCV 4a Rluc cells (NS5A chimeric genotype 1b Con1 replicon with genotype 4a NS5A gene); details: Hepatitis C virus, read-out: 4a
How it was run: as §2

[6] = genotype 1a H77 replicon, RLuc reporter
[7] = read-out: 3a, genotype 3a NS5A chimeric 1b Con1 replicon
[8] = read-out: 3a, genotype 3a replicon

Structure (SMILES)	EC50 [1, 6] [nM]	EC50 [2] [nM]	EC50 ([3]; RLuc reporter) [nM]	EC50 [4, 7] [nM]	EC50 [5] [nM]	EC50 ([1]; genotype 1a replicon) [nM]	EC50 [3] [nM]	EC50 [4, 8] [nM]	other results
COC(=O)N[C@@H](C(=O)N1CCC[C@H]1c1ncc(-c2ccc3cc(-c4ccc5c(c4)CCc4nc([C@@H]6CCCN6C(=O)[C@@H](NC(O)OC)C6CCN(S(C)(=O)=O)CC6)[nH]c4-5)ccc3c2)[nH]1)c1ccccc1 (stereo partly drawn) [Example 281]	0.001 to 0.999	0.063	0.001 to 0.999	0.001 to 0.99	0.001 to 0.99	–	–	–	–
COC(=O)N[C@H](C(=O)N1CCC[C@H]1c1ncc(-c2ccc(-c3ccc(-c4[nH]c([C@@H]5CCCN5C(=O)[C@@H](NC(=O)OC)C(C)C)nc4Cl)cc3)cc2)[nH]1)C(C)C [Example 359]	–	0.011	–	–	0.001 to 0.99	0.001 to 0.999	0.001 to 0.999	0.001 to 0.99	–
CCC(CC)[C@H](NC(=O)OC)C(=O)N1CCC[C@H]1c1ncc(-c2ccc3cc(-c4ccc(-c5cnc([C@@H]6CCCN6C(=O)[C@H](NC(=O)OC)c6ccccc6)[nH]5)cc4)ccc3c2)[nH]1 [Example 286]	0.001 to 0.999	0.003	0.001 to 0.999	0.001 to 0.99	0.001 to 0.99	–	–	–	–
COC(=O)N[C@H](C(=O)N1[C@@H]2C[C@@H]2C[C@H]1c1nc2ccc3cc(-c4ccc(-c5cnc([C@@H]6[C@H]7CC[C@H](C7)N6C(=O)[C@@H](NC(=O)OC)C6CCOCC6)[nH]5)c(F)c4)ccc3c2[nH]1)C(C)C [Example 320]	–	0.01	–	–	0.001 to 0.99	0.001 to 0.999	0.001 to 0.999	0.001 to 0.99	–
COC(=O)N[C@H](C(=O)N1CCC[C@H]1c1ncc(-c2ccc3c(c2)C(F)(F)c2cc(-c4ccc5nc([C@@H]6CCCN6C(=O)[C@H](NC(=O)OC)c6ccccc6)[nH]c5c4)ccc2-3)[nH]1)C1CCOCC1 [Example 259]	0.001 to 0.999	0.014	0.001 to 0.999	0.001 to 0.99	0.001 to 0.99	–	–	–	–
COC(=O)N[C@H](C(=O)N1CCC[C@H]1c1nc2ccc3cc(-c4ccc(-c5cnc([C@@H]6[C@H]7CC[C@H](C7)N6C(=O)[C@@H](NC(=O)OC)C6CCOCC6)[nH]5)c(F)c4)ccc3c2[nH]1)C(C)C [Example 305]	–	0.017	–	–	0.001 to 0.99	0.001 to 0.999	0.001 to 0.999	0.001 to 0.99	–
COC(=O)N[C@H](C(=O)N1CCC[C@H]1c1ncc(-c2ccc3c(c2)C(F)(F)c2cc(-c4ccc5nc([C@@H]6CCCN6C(=O)[C@H](NC(=O)OC)c6ccccc6)[nH]c5c4)ccc2-3)[nH]1)C(C)C [Example 258]	0.001 to 0.999	0.005	0.001 to 0.999	0.001 to 0.99	0.001 to 0.99	–	–	–	–
COC(=O)N[C@H](C(=O)N1CCC[C@H]1c1ncc(-c2cc3c4c(c2)CCc2cc(-c5cnc([C@@H]6CCCN6C(=O)[C@@H](NC(=O)OC)[C@H](C)OC)[nH]5)cc(c2-4)CC3)[nH]1)C(C)C [Example 25]	–	–	–	–	0.001 to 0.99	–	–	–	EC50 ([1]; 72 h, Table 1, genotype 1a H77 replicon, 72 hours): 0.001 to 0.999 nM; EC50 ([2]; 72 h): 0.021 nM; EC50 ([3]; 72 h, Table 1, 72 hours): 0.001 to 0.999 nM; EC50 ([4]; read-out: 3a, Table 1, genotype 3a NS5A chimeric replicon): 0.001 to 0.99 nM
COC(=O)N[C@H](C(=O)N1CCC[C@H]1c1ncc(-c2ccc3c4ccc(-c5cnc([C@@H]6CCCN6C(=O)[C@@H](NC(=O)OC)C6CCOCC6)[nH]5)cc4c4ccccc4c3c2)[nH]1)C(C)C [Example 293]	–	0.042	–	–	0.001 to 0.99	0.001 to 0.999	0.001 to 0.999	0.001 to 0.99	–
COC(=O)N[C@H](C(=O)N1CCC[C@H]1c1ncc(-c2ccc(-c3ccc(-c4cnc([C@@H]5CCCN5C(=O)[C@H](NC(=O)OC)c5ccccc5)[nH]4)cc3)cc2)[nH]1)C(C)C [Example 60]	–	–	–	–	0.001 to 0.99	–	–	–	EC50 ([1]; 72 h, Table 2, genotype 1a H77 replicon, 72 hours): 1 to 44 nM; EC50 ([2]; 72 h): 0.02 nM; EC50 ([3]; 72 h, Table 2, 72 hours): 0.001 to 0.999 nM; EC50 ([4]; read-out: 3a, Table 2, genotype 3a NS5A chimeric replicon): 0.001 to 0.99 nM
COC(=O)N[C@H](C(=O)N1CCC[C@H]1c1nc2c([nH]1)COc1cc(-c3ccc4cc(-c5c[nH]c([C@@H]6CCCN6C(=O)[C@@H](c6ccccc6)N(C)C)n5)ccc4c3)ccc1-2)C(C)C [Example 177]	0.001 to 0.999	0.01	0.001 to 0.999	0.001 to 0.99	0.001 to 0.99	–	–	–	–
COC(=O)N[C@H](C(=O)N1CCC[C@H]1c1ncc(-c2ccc3cc(-c4ccc(-c5cnc([C@@H]6CCCN6C(=O)[C@@H](NC(=O)OC)[C@@H](C)OC(C)(C)C)[nH]5)cc4)ccc3c2)[nH]1)C(C)C [Example 265]	1 to 44	0.042	1 to 44	1 to 4.99	0.001 to 0.99	–	–	–	–
